Data taken from US9670217B2, “Process for preparing chlorins and their pharmaceutical uses” (UNIVERSIDADE DE COIMBRA, priority 2008, dated 2017).
Where “and” joins values, the source holds several entries; their conditions need not be identical. Identical values can stand only once.

Assays:
[1] = n-octanol:water partition coefficient (shake-flask); type: physicochemical
Procedure: The n-octanol:water partition coefficients (CP) were measured using a minor modification of the shake-flask method described by some of us in the literature. The modification concerned the excitation of the absorption band ca 500 nm and the collection of the fluorescence in the red/IR region.

[2] = system: CT26 (murine colon carcinoma); test: Cell photosensitization, 748 nm diode laser, resazurin; type: cell-based, mouse; details: for concentration of sensitizer required to kill 90% of cells (LD90): 6 J/cm^2 diode laser irradiation at 28.5 mW
[3] = system: HT-29 (human adenocarcinoma); test: as above; type: cell-based; details: for concentration of sensitizer required to kill 90% of cells (LD90): 6 J/cm^2 diode laser irradiation at 28.5 mW
[4] = Singlet oxygen quantum yield and lifetime (1270 nm phosphorescence); type: physicochemical; details: air-saturated ethanol; for ΦΔ (singlet oxygen quantum yield): phenalenone as reference
Procedure: (§1) Absorption spectra were recorded on a Shimadzu UV-2100 spectrophotometer or with a Carry 50 Biospectrophotometer (Varian, Mulgrave, USA). Fluorescence spectra were measured with a Spex Fluorolog 3 spectrophotometer, with correction for the wavelength dependence system (RCA C31034 photomultiplier), or with a PerkinElmer LS 50 spectrofluorimeter. Transient absorption spectra were measured with an Applied Photophysics LKS 60 nanosecond laser flash photolysis kinetic spectrometer, using the third harmonic of a Spectra-Physics Quanta Ray GCR 130-01 Nd/YAG laser for excitation, a Hamamatsu 1P28 photomultiplier and a Hewlett-Packard Infinium oscilloscope (1 GS/s). Flash photolysis measurements were made in the presence of air and in argon saturated solutions. Photoacoustic calorimetry employed the same Nd/YAG laser, a home-made front-face photoacoustic cell with a 2.25 MHz Panametrics transducer (model 5676) and a Tektronix DSA 601 transient recorder. Room-temperature singlet-oxygen phosphorescence was measured at 1270 nm with a Hamamatsu R5509-42 photomultiplier, cooled to 193 K in a liquid nitrogen chamber (Products for Research model PC176TSCE005), following laser excitation of aerated solutions at 355 nm, using an adapted Applied Photophysics spectrometer. Singlet oxygen emission at 1270 nm was also monitored with a liquid nitrogen-cooled germanium detector (North Coast) coupled to a Tectronix Digitizing scope (TDS 520B), following sample excitation with 5 ns laser pulses of the third harmonic (355 nm) generated by a Q-switched Nd:YAG laser (Continuum Surelite II).
Singlet oxygen quantum yields in ethanol were obtained using a procedure described by some of us, using phenalenone as reference. The literature value for the singlet oxygen quantum yield obtained with phenalenone in ethanol is ΦΔ=0.95 [38].
All the singlet oxygen emissions measured in aerated ethanol solutions are very well described by mono-exponential decays, with typical singlet oxygen lifetimes (τΔ). The ΦΔ values of Table 1 were obtained by the procedures described above and are representative of these photosensitisers.
An air-saturated solution of Luzitin-Cl2Hep in ethanol with an absorbance ca. 0.2 at 355 nm was excited in a 1 cm quartz cuvette by a pulsed Nd:YAG laser, and the singlet oxygen emission was followed at 1270 nm, using the equipment and methods previously described. The intensity of the singlet oxygen phosphorescence was studied as a function of the laser intensity. A similar study was made with phenalenone in ethanol, at a concentration matching the absorbance of Luzitin-Cl2Hep at 355 nm. […] Various laser energies were employed and from the slopes of the energy dependence of singlet oxygen emission and the value of ΦΔ=0.95 for phenalenone in this ethanol, we obtained ΦΔ=0.78 for Luzitin-Cl2Hep.

[5] = Triplet lifetime by laser flash photolysis; type: physicochemical; details: air-saturated ethanol
Procedure: as §1
The triplet-triplet absorption spectra and the triplet lifetimes of the photosensitisers (τT) were measured with the transient absorption spectra equipment described above, with excitation at 355 nm, where the solutions had absorbances between 0.25 and 0.30.
The triplet-triplet absorption spectra of the Luzitins measured in this work were in good agreement with that in the literature data for chlorins and bacteriochlorins. All triplet decays were clearly mono-exponential. […] Such values are consistent with diffusion limited energy transfer from the triplet state of the sensitizer to molecular oxygen through a charge-transfer interaction.

[6] = system: PC-3 (human prostate carcinoma); test: Cell photosensitization, 748 nm diode laser, resazurin; type: cell-based; details: for concentration of sensitizer required to kill 90% of cells (LD90): 6 J/cm^2 diode laser irradiation at 28.5 mW
[7] = Absorption spectra (λmax, molar absorption coefficient); type: physicochemical; details: for λmax / εmax: ethanol solutions
[8] = Fluorescence quantum yield; type: physicochemical; details: ethanol
Procedure: The absorptions of both reference and sample solutions were matched at ca 0.2 at the excitation wavelength of 515.5 nm, and the solutions were diluted by a factor 10 before collecting the fluorescence. The fluorescence quantum yield was obtained from the ratio of the fluorescence bands of the sample vs the reference, multiplied by the fluorescence quantum yield of the reference, 0.012 according to [12], after correction for the difference of refractive indexes of ethanol and toluene.
This is indicative of little aggregation between the molecules, which exist mostly as monomers at these concentrations in the solvents studied. Table 1 presents typical red and infrared molar absorption coefficients (εmax) and wavelength maxima. The same table also presents representative fluorescence quantum yields (ΦF) of Luzitins. The fluorescence quantum yields decrease of these molecules decrease in the presence of chlorine substituents, a fingerprint of the heavy atom effect expected for such molecules.

[9] = corrected for the chlorin content

Row | Structure (SMILES) | log KOW (n-octanol:water partition coefficient) [1] | cell kill ([2]; 10 μM, laser light dose 6 J/cm^2, incubation 18 hours) | concentration of sensitizer required to kill 90% of cells (LD90) [3] | τΔ (singlet oxygen lifetime) [4] | ΦΔ (singlet oxygen quantum yield) [4] | τT (air) triplet lifetime [5] | cell kill ([6]; 20 μM, laser light dose 6 J/cm^2, incubation 24 hours) | concentration of sensitizer required to kill 90% of cells (LD90) [6] | λmax [7] | εmax [7, 9] | ΦF (fluorescence quantum yield) [8] | concentration of sensitizer required to kill 90% of cells (LD90) [2] | enhancement of ε at 750 nm band, more polar atropisomer fraction (βα3+α4) [7] | εmax of the more polar atropisomer fraction (βα3+α4) ([7]; at 748 nm (750 nm band), estimated) | εmax [7] | cell kill ([3]; 1 μM, laser light dose 6 J/cm^2, incubation 18 hours)
1 | O=S(=O)(O)c1ccc(Cl)c(-c2c3nc(c(-c4c(Cl)ccc(S(=O)(=O)O)c4Cl)c4ccc([nH]4)c(-c4c(Cl)ccc(S(=O)(=O)O)c4Cl)c4nc(c(-c5c(Cl)ccc(S(=O)(=O)O)c5Cl)c5ccc2[nH]5)CC4)CC3)c1Cl [Luzitin-Cl2, 5,10,15,20-tetrakis(2,6-dichloro-3-sulfonylphenyl)bacteriochlorin] | −1.75 | 100% | 50 µM | 15.4 μsec | 0.85 | 226 nsec | 100% | 20 µM | 745.0 nm | 27,000^d) M^−1 cm^−1 | 0.0062 | – | – | – | – | –
2 | CCNS(=O)(=O)c1ccc(Cl)c(-c2c3nc(c(-c4c(Cl)ccc(S(=O)(=O)NCC)c4Cl)c4ccc([nH]4)c(-c4c(Cl)ccc(S(=O)(=O)NCC)c4Cl)c4nc(c(-c5c(Cl)ccc(S(=O)(=O)NCC)c5Cl)c5ccc2[nH]5)CC4)CC3)c1Cl [Luzitin-Cl2Et, 5,10,15,20-tetrakis(2,6-dichloro-3-N-ethylsulfamoylphenyl)bacteriochlorin] | 1.8 | – | 10 µM | 13.7 μsec | 0.66 | 265 nsec | – | 5 µM | 745.5 nm | – | 0.0081 | 5 µM | 50% | 150,000 M^−1 cm^−1 | 96,000 M^−1 cm^−1 | –
3 | O=S(=O)(O)c1ccc(Cl)c(-c2c3nc(c(-c4cc(S(=O)(=O)O)ccc4Cl)c4ccc([nH]4)c(-c4cc(S(=O)(=O)O)ccc4Cl)c4nc(c(-c5cc(S(=O)(=O)O)ccc5Cl)c5ccc2[nH]5)CC4)CC3)c1 [Luzitin-Cl, 5,10,15,20-tetrakis(2-chloro-5-sulfonylphenyl)bacteriochlorin] | −1.70 | – | – | 13.6 μsec | 0.43 | 240 nsec | – | – | 746.5 nm | 23,000^d) M^−1 cm^−1 | 0.0403 | – | – | – | – | –
4 | CNS(=O)(=O)c1ccc(F)c(-c2c3nc(c(-c4cc(S(=O)(=O)NC)ccc4F)c4ccc([nH]4)c(-c4cc(S(=O)(=O)NC)ccc4F)c4nc(c(-c5cc(S(=O)(=O)NC)ccc5F)c5ccc2[nH]5)CC4)CC3)c1 [Luzitin-FMet, 5,10,15,20-tetrakis(2-fluoro-5-N-methylsulfamoylphenyl)bacteriochlorin] | 2.3 | – | 0.5 µM and 1 µM | 14.1 μsec | 0.71 | – | – | 0.5 µM | 742.5 nm | 62,000^d) M^−1 cm^−1 | 0.0589 | 1.0 µM | – | – | – | 100%
